Measured values as given in PubChem BioAssay (NCI).
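Here, GI50 denotes the concentration required for 50% inhibition of growth. TGI denotes the concentration required for complete inhibition of growth.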

Legend:
Assay in all cases: DTP human tumour cell line panel, 384-well format
786-0 renal = test system: 786-0 renal
A498 renal = test system: A498 renal
A549 NSCLC = test system: A549 NSCLC
ACHN renal = test system: ACHN renal
BT-549 breast = test system: BT-549 breast
CAKI-1 renal = test system: CAKI-1 renal
CCRF-CEM leukemia = test system: CCRF-CEM leukemia
EKVX NSCLC = test system: EKVX NSCLC
HCC-2998 colon = test system: HCC-2998 colon
HCT-15 colon = test system: HCT-15 colon
HL-60(TB) leukemia = test system: HL-60(TB) leukemia
HOP-62 NSCLC = test system: HOP-62 NSCLC
HOP-92 NSCLC = test system: HOP-92 NSCLC
HS 578T breast = test system: HS 578T breast
HT29 colon = test system: HT29 colon
IGROV1 ovarian = test system: IGROV1 ovarian
K-562 leukemia = test system: K-562 leukemia
MCF7 breast = test system: MCF7 breast
MDA-MB-231 breast = test system: MDA-MB-231 breast
MDA-MB-435 melanoma = test system: MDA-MB-435 melanoma
MDA-MB-468 breast = test system: MDA-MB-468 breast
MOLT-4 leukemia = test system: MOLT-4 leukemia
NCI-H226 lung = test system: NCI-H226 lung
NCI-H23 lung = test system: NCI-H23 lung
NCI-H322M lung = test system: NCI-H322M lung
NCI-H460 NSCLC = test system: NCI-H460 NSCLC
NCI-H522 lung = test system: NCI-H522 lung
NCI/ADR-RES ovarian = test system: NCI/ADR-RES ovarian
OVCAR-3 ovarian = test system: OVCAR-3 ovarian
OVCAR-4 ovarian = test system: OVCAR-4 ovarian
OVCAR-5 ovarian = test system: OVCAR-5 ovarian
OVCAR-8 ovarian = test system: OVCAR-8 ovarian
PC-3 prostate = test system: PC-3 prostate
RPMI-8226 leukemia = test system: RPMI-8226 leukemia
SF-268 CNS = test system: SF-268 CNS
SF-295 CNS = test system: SF-295 CNS
SF-539 CNS = test system: SF-539 CNS
SK-MEL-5 melanoma = test system: SK-MEL-5 melanoma
SK-OV-3 ovarian = test system: SK-OV-3 ovarian
SN12C renal = test system: SN12C renal
SNB-19 CNS = test system: SNB-19 CNS
SNB-75 CNS = test system: SNB-75 CNS
SR leukemia = test system: SR leukemia
SW-620 colon = test system: SW-620 colon
T-47D breast = test system: T-47D breast
TK-10 renal = test system: TK-10 renal
U251 glioblastoma = test system: U251 glioblastoma
UO-31 renal = test system: UO-31 renal

Work on `Cc1ncc(CCCN(C)C)cc1Nc1ncc2c(n1)-c1ccc(C(F)(F)F)cc1NC(=S)C2` yielded a GI50 ([…]-0 renal) of under 0.01 µM, a TGI (786-0 renal) of 0.305 µM and a GI50 (A498 renal) of under 0.01 µM. The TGI (A498 renal) was 12.7 µM, the GI50 (A549 NSCLC) was under 0.01 µM and the TGI (A549 NSCLC) was 0.17 µM. For the same compound, the GI50 (ACHN renal) was 0.0444 µM, the TGI (ACHN renal) was 15.3 µM and the GI50 (BT-549 breast) was under 0.01 µM. The TGI (BT-549 breast) was 0.0371 µM, the GI50 (CAKI-1 renal) was 0.0592 µM and the TGI (CAKI-1 renal) was 12.9 µM. It also gave a GI50 (CCRF-CEM leukemia) of under 0.01 µM, a TGI (CCRF-CEM leukemia) of under 0.01 µM and a GI50 (EKVX NSCLC) of 0.0116 µM. For the same compound, the TGI (EKVX NSCLC) was 17.8 µM, the GI50 (HCC-2998 colon) was under 0.01 µM and the TGI (HCC-2998 colon) was 0.0139 µM. It also gave a GI50 (HCT-15 colon) of under 0.01 µM, a TGI (HCT-15 colon) of 0.0351 µM and a GI50 (HL-60(TB) leukemia) of under 0.01 µM. For the same compound, the TGI (HL-60(TB) leukemia) was under 0.01 µM, the GI50 (HOP-62 NSCLC) was under 0.01 µM and the TGI (HOP-62 NSCLC) was 0.037 µM. It also gave a GI50 (HOP-92 NSCLC) of under 0.01 µM, a TGI (HOP-92 NSCLC) of 6.28 µM and a GI50 (HS 578T breast) of under 0.01 µM. It also gave a TGI (HS 578T breast) of 0.0215 µM, a GI50 (HT29 colon) of under 0.01 µM and a TGI (HT29 colon) of under 0.01 µM. The GI50 (IGROV1 ovarian) was under 0.01 µM, the TGI (IGROV1 ovarian) was 16.1 µM and the GI50 (K-562 leukemia) was under 0.01 µM. For the same compound, the TGI (K-562 leukemia) was under 0.01 µM, the GI50 (MCF7 breast) was under 0.01 µM and the TGI (MCF7 breast) was 2.27 µM. It also gave a GI50 (MDA-MB-231 breast) of under 0.01 µM, a TGI (MDA-MB-231 breast) of 12.2 µM and a GI50 (MDA-MB-435 melanoma) of under 0.01 µM. For the same compound, the TGI (MDA-MB-435 melanoma) was under 0.01 µM, the GI50 (MDA-MB-468 breast) was under 0.01 µM and the TGI (MDA-MB-468 breast) was under 0.01 µM. For the same compound, the GI50 (MOLT-4 leukemia) was under 0.01 µM, the TGI (MOLT-4 leukemia) was under 0.01 µM and the GI50 (NCI-H226 lung) was 0.512 µM. The TGI (NCI-H226 lung) was 6.71 µM, the GI50 (NCI-H23 lung) was under 0.01 µM and the TGI (NCI-H23 lung) was under 0.01 µM. For the same compound, the GI50 (NCI-H322M lung) was 4.46 µM, the TGI (NCI-H322M lung) was 19.8 µM and the GI50 (NCI-H460 NSCLC) was under 0.01 µM. The TGI (NCI-H460 NSCLC) was under 0.01 µM, the GI50 (NCI-H522 lung) was under 0.01 µM and the TGI (NCI-H522 lung) was under 0.01 µM. It also gave a GI50 (NCI/ADR-RES ovarian) of 0.0314 µM, a TGI (NCI/ADR-RES ovarian) of 0.179 µM and a GI50 (OVCAR-3 ovarian) of under 0.01 µM. It also gave a TGI (OVCAR-3 ovarian) of under 0.01 µM, a GI50 (OVCAR-4 ovarian) of under 0.01 µM and a TGI (OVCAR-4 ovarian) of 13.2 µM. For the same compound, the GI50 (OVCAR-5 ovarian) was under 0.01 µM, the TGI (OVCAR-5 ovarian) was 0.173 µM and the GI50 (OVCAR-8 ovarian) was under 0.01 µM. The TGI (OVCAR-8 ovarian) was under 0.01 µM, the GI50 (PC-3 prostate) was under 0.01 µM and the TGI (PC-3 prostate) was 14.3 µM. For the same compound, the GI50 (RPMI-8226 leukemia) was under 0.01 µM, the TGI (RPMI-8226 leukemia) was under 0.01 µM and the GI50 (SF-268 CNS) was under 0.01 µM. The TGI (SF-268 CNS) was 1.99 µM, the GI50 (SF-295 CNS) was under 0.01 µM and the TGI (SF-295 CNS) was 0.0171 µM. It also gave a GI50 (SF-539 CNS) of under 0.01 µM, a TGI (SF-539 CNS) of 0.117 µM and a GI50 (SK-MEL-5 melanoma) of under 0.01 µM. For the same compound, the TGI (SK-MEL-5 melanoma) was 0.0127 µM, the GI50 (SK-OV-3 ovarian) was under 0.01 µM and the TGI (SK-OV-3 ovarian) was 1.69 µM. It also gave a GI50 (SN12C renal) of 0.138 µM, a TGI (SN12C renal) of 3.47 µM and a GI50 (SNB-19 CNS) of under 0.01 µM. It also gave a TGI (SNB-19 CNS) of 0.641 µM, a GI50 (SNB-75 CNS) of under 0.01 µM and a TGI (SNB-75 CNS) of 0.0152 µM. For the same compound, the GI50 (SR leukemia) was under 0.01 µM, the TGI (SR leukemia) was under 0.01 µM and the GI50 (SW-620 colon) was under 0.01 µM. The TGI (SW-620 colon) was 0.0148 µM, the GI50 (T-47D breast) was 0.0375 µM and the TGI (T-47D breast) was 15.1 µM. For the same compound, the GI50 (TK-10 renal) was 1.73 µM, the TGI (TK-10 renal) was 19.7 µM and the GI50 (U251 glioblastoma) was under 0.01 µM. For the same compound, the TGI (U251 glioblastoma) was 11.2 µM, the GI50 (UO-31 renal) was 0.099 µM and the TGI (UO-31 renal) was 19.8 µM.
